# Source: patent US7074743B1, “Herbicidal composition comprising 4-iodo-2-[3-(4-methoxy-6-methyl-1,3,5-triazin-2-yl)ureidosulfonyl]benzoic esters” (priority 1995, dated 2006)
# How the values were obtained:
# Type in all cases: in vivo
# [1] = system: Triticum aestivum; assay: Damage to crop plant TRZAW, visual scoring vs untreated
# Procedure: (§1) The examples given below were performed in the greenhouse and, in some cases, in field trials.
# (§2) The herbicides, or combinations, were applied in cereals after the weeds had emerged naturally using plot sprayers. After application, the results, such as damage to the crop plants and effect on broad-leaved weeds/grass weeds were assessed by means of visual scoring. The herbicidal action was assessed qualitatively and quantitatively by comparing untreated and treated plots on the basis of the effect on plant growth and the development of chloroses and necroses down to the complete destruction of the weeds (0–100%). The application was effected when the crop plants and weeds were in the 2–4 leaf stage. The test was evaluated approximately 4 weeks after application.
# (§3) In the greenhouse experiments, the crop plants and broadleaved weeds/grass weeds were grown in No. 13 pots and treated in the 2–4 leaf stage. The pots were subsequently placed in the greenhouse under good growth conditions (temperature, atmospheric humidity, water supply).
# (§4) The assessments were carried out similarly to those in the field trials, i.e. visual scoring of the treated plants in comparison with untreated control variants. These assessments were carried out 3 weeks after applying the test preparations and their combinations. The experiments had been set up in two replications.
# [2] = system: Fallopia convolvulus; assay: Herbicidal action on FALCO, visual scoring vs untreated, post-emergence 2-4 leaf stage
# Procedure: as §1, §2, §3, §4
# (§5) To assess the combination effects, the activities of the individual components were added and compared with the activity of the mixtures in equal doses. It was frequently observed that the efficacies of the combinations exceeded the total of the individual activities.
# (§6) In cases with less clear effects, the expected value was calculated using Colby's formula and compared with the empirically determined result. The calculated efficacy of a combination which is expected in theory is determined is using S.R. Colby's formula: “Calculation of synergistic and antagonistic responses of herbicide combinations”, Weeds 15 (1967), pages 20 to 22.
# (§7) [formula] where • X=% damage caused by herbicide A at a rate of ×kg a.i./ha; • Y=% damage caused by herbicide B at a rate of y kg a.i./ha; • Z=% damage caused by a further herbicide C at a rate of z kg a.i./ha; • E=expected value, i.e. expected damage caused by herbicides A+B (or A+B+C) at x+y (or x+y+z) kg a.i./ha.
# (§8) Synergistic effects were assumed to be when the empirical value exceeded the expected value. In the case of combinations with individual components with the same active substances, comparisons via the total formula were also possible.
# [3] = system: Avena fatua; assay: Herbicidal action on AVEFA, visual scoring vs untreated, post-emergence 2-4 leaf stage; conditions: Table 11
# Procedure: as §1, §2, §3, §4, §5, §6, §7, §8
# [4] = system: Gallium aparine; assay: Herbicidal action on GALAP, visual scoring vs untreated, post-emergence 2-4 leaf stage
# Procedure: as §1, §2, §3, §4, §5, §6, §7, §8
# [5] = system: Mercurialis annua; assay: Herbicidal action on MERAN, visual scoring vs untreated, post-emergence 2-4 leaf stage; conditions: Table 11
# Procedure: as §1, §2, §3, §4, §5, §6, §7, §8
# [6] = system: Phalaris canariensis; assay: Herbicidal action on PHACA, visual scoring vs untreated, post-emergence 2-4 leaf stage (greenhouse / field trials); conditions: Table 3
# Procedure: as §1, §2, §3, §4, §5, §6, §7, §8
# [7] = system: Lolium multiflorum; assay: Herbicidal action on LOLMU, visual scoring vs untreated, post-emergence 2-4 leaf stage
# Procedure: as §1, §2, §3, §4, §5, §6, §7, §8
# [8] = system: Centaurea cyanus; assay: Herbicidal action on CENCY, visual scoring vs untreated, post-emergence 2-4 leaf stage
# Procedure: as §1, §2, §3, §4, §5, §6, §7, §8
# [9] = system: Secale cereale; assay: Damage to crop plant SECCW, visual scoring vs untreated
# Procedure: as §1, §2, §3, §4
smiles,measurement,setting,value
"COC(=O)c1ccccc1S(=O)(=O)NC(=O)N(C)c1nc(C)nc(OC)n1 [B42), tribenuron-methyl]",TRZAW % damage,"[1]; Triticum aestivum, in vivo",0%
same,FALCO % control,"[2]; Table 9, 5 g of a.i./ha",88%
same,FALCO % control,"[2]; Table 9, 10 g of a.i./ha",93%
same,FALCO % control,"[2]; Table 9, 20 g of a.i./ha",95%
same,FALCO % control,"[2]; Table 9, 40 g of a.i./ha",97%
"CP(=O)(O)CC[C@@H](N)C(=O)O (racemic) [B49), 4-[hydroxy(methyl)phosphinoyl]-DL-homoalanine]",AVEFA % control,[3]; 150 g of a.i./ha,60%
same,AVEFA % control,[3]; 300 g of a.i./ha,70%
same,AVEFA % control,[3]; 450 g of a.i./ha,80%
same,GALAP % control,"[4]; Table 11, 150 g of a.i./ha",55%
same,GALAP % control,"[4]; Table 11, 300 g of a.i./ha",73%
same,GALAP % control,"[4]; Table 11, 450 g of a.i./ha",85%
same,MERAN % control,[5]; 150 g of a.i./ha,65%
same,MERAN % control,[5]; 300 g of a.i./ha,78%
same,MERAN % control,[5]; 450 g of a.i./ha,90%
"CC(C)c1ccc(NC(=O)N(C)C)cc1 [B2), 3-(4-isopropylphenyl)-1,1-dimethylurea]",TRZAW % damage,[1]; in vivo,0%
same,PHACA % control,[6]; 375 g of a.i./ha,0%
same,PHACA % control,[6]; 750 g of a.i./ha,0%
same,PHACA % control,[6]; 1500 g of a.i./ha,50%
same,LOLMU % control,"[7]; Table 3, 375 g of a.i./ha",0%
same,LOLMU % control,"[7]; Table 3, 750 g of a.i./ha",0%
same,LOLMU % control,"[7]; Table 3, 1500 g of a.i./ha",0%
"Cc1cc(Cl)ccc1O[C@H](C)C(=O)O [B16), (R)-2-(4-chloro-o-tolyloxy)propionic acid]",CENCY % control,"[8]; Table 6, 600 g of a.i./ha",30%
same,CENCY % control,"[8]; Table 6, 2500 g of a.i./ha",70%
same,TRZAW % damage,"[1]; Table 5, 125 g of a.i./ha",0%
same,TRZAW % damage,"[1]; Table 5, 250 g of a.i./ha",0%
same,TRZAW % damage,"[1]; Table 5, 500 g of a.i./ha",0%
same,TRZAW % damage,"[1]; Table 5, 1000 g of a.i./ha",0%
same,FALCO % control,"[2]; Table 5, 125 g of a.i./ha",0%
same,FALCO % control,"[2]; Table 5, 250 g of a.i./ha",15%
same,FALCO % control,"[2]; Table 5, 500 g of a.i./ha",55%
same,FALCO % control,"[2]; Table 5, 1000 g of a.i./ha",68%
same,SECCW % damage,"[9]; Table 6, 600 g of a.i./ha",0%
same,SECCW % damage,"[9]; Table 6, 2500 g of a.i./ha",0%
"N#Cc1cc(I)c(O)c(I)c1 [B22), 4-hydroxy-3,5-di-iodobenzonitrile]",GALAP % control,"[4]; Table 7, 62.5 g of a.i./ha",0%
same,GALAP % control,"[4]; Table 7, 125 g of a.i./ha",3%
same,GALAP % control,"[4]; Table 7, 250 g of a.i./ha",10%
same,GALAP % control,"[4]; Table 7, 500 g of a.i./ha",18%
same,TRZAW % damage,[1]; in vivo,0%
"COc1cc(OC)nc(NC(=O)NS(=O)(=O)N(C)S(C)(=O)=O)n1 [B40), 1-(4,6-dimethoxypyrimidin-2-yl)-3-mesyl (methyl)-sulfamoylurea]",CENCY % control,"[8]; Table 10, 20 g of a.i./ha",25%
same,SECCW % damage,"[9]; Table 10, 20 g of a.i./ha",0%
"O=C(Nc1ccc(F)cc1F)c1cccnc1Oc1cccc(C(F)(F)F)c1 [B32), 2′ 4′-difluoro-2-(α,α,α-trifluoro-m-tolyloxy)nicotinanilide]",GALAP % control,"[4]; Table 7, 13 g of a.i./ha",0%
same,GALAP % control,"[4]; Table 7, 25 g of a.i./ha",0%
same,GALAP % control,"[4]; Table 7, 50 g of a.i./ha",5%
same,GALAP % control,"[4]; Table 7, 100 g of a.i./ha",5%
same,TRZAW % damage,"[1]; Table 7, 13 g of a.i./ha",0%
same,TRZAW % damage,"[1]; Table 7, 25 g of a.i./ha",0%
same,TRZAW % damage,"[1]; Table 7, 50 g of a.i./ha",0%
same,TRZAW % damage,"[1]; Table 7, 100 g of a.i./ha",0%
"Cc1cc(Cl)ccc1OCC(=O)O [B17), (4-chloro-2-methylphenoxy) acetic acid]",TRZAW % damage,"[1]; Table 5, 250 g of a.i./ha",0%
same,FALCO % control,"[2]; Table 5, 250 g of a.i./ha",0%
same,FALCO % control,"[2]; Table 5, 500 g of a.i./ha",68%
same,FALCO % control,"[2]; Table 5, 1000 g of a.i./ha",75%
"COc1c(Cl)ccc(Cl)c1C(=O)O [B20), 3,6-dichloro-o-anisic acid]",LOLMU % control,"[7]; Table 5, 50 g of a.i./ha",5%
same,LOLMU % control,"[7]; Table 5, 100 g of a.i./ha",10%
same,LOLMU % control,"[7]; Table 5, 200 g of a.i./ha",18%
same,LOLMU % control,"[7]; Table 5, 400 g of a.i./ha",40%
